Test results: patent publication US20260206757A1, “METHODS OF CONTROLLING UNDESIRABLE PLANTS WITH PPO HERBICIDES AND COMBINATIONS IN HERBICIDE TOLERANT CROP PLANTS” (BASF AGRO B.V., priority 2022, published 2026)

Tests used:
Polygonum aviculare = experiment: Greenhouse experiment, post emergence herbicidal activity; assay type: in vivo; conditions: POLAV
Procedure: (§1) For the post emergence treatment, the plants were first grown to the 2 to 4 leaf stage (GS 12/14). The plants were cultivated due to their individual requirements at 10-25° C. and 20-35° C. The plants were irrigated as required.
(§2) Here, the herbicidal compositions were suspended or emulsified in water as distribution medium and sprayed using finely distributing nozzles. 1% methylated seed oil (MSO) has been added as adjuvant to each of the solo and mixture treatments.
(§3) In the greenhouse experiments, the herbicidal activity for the individual herbicidal compositions (solo and mixture applications) was assessed 20/21 days after treatment (DAT).
(§4) The evaluation for the damage on undesired weeds caused by the chemical compositions was carried out using a scale from 0 to 100%, compared to the untreated control plants. Here, 0 means no damage and 100 means complete destruction of the plants.

Chenopodium album = experiment: as above; assay type: in vivo; conditions: CHEAL
Procedure: as §1, §2, §3, §4

Ambrosia artemisiifolia = experiment: as above; assay type: in vivo; conditions: AMBEL
Procedure: as §1, §2, §3, §4

Hibiscus trionum = experiment: as above; assay type: in vivo; conditions: HIBTR
Procedure: as §1, §2, §3, §4

Convolvulus arvensis = experiment: as above; assay type: in vivo; conditions: CONAR
Procedure: as §1, §2, §3, §4

Sonchus arvensis = experiment: as above; assay type: in vivo; conditions: SONAR
Procedure: as §1, §2, §3, §4

Matricaria chamomilla = experiment: as above; assay type: in vivo; conditions: MATCH
Procedure: as §1, §2, §3, §4

Echinochloa crus-galli [1] = experiment: as above; assay type: in vivo; conditions: ECHCG
Procedure: as §1, §2, §3, §4

Abutilon theophrasti = experiment: as above; assay type: in vivo; conditions: ABUTH
Procedure: as §1, §2, §3, §4

Solanum nigrum = experiment: as above; assay type: in vivo; conditions: SOLNI, BBCH 12-14, Flumioxazin 1, Fomesafen 123 g ai/ha
Procedure: as §1, §2, §3, §4

HELAN w F(383)I = experiment: Greenhouse experiment, crop safety of PPO inhibitor tolerant sunflower; assay type: in vivo, Helianthus annuus; conditions: BBCH 12-14, Flumioxazin 0.5, Halauxifen 1 g ai/ha, scale 0 to 100%
Procedure: as §1, §2, §3, §4

Setaria viridis = experiment: Greenhouse experiment, post emergence herbicidal activity; assay type: in vivo; conditions: SETVI
Procedure: as §1, §2, §3, §4

Papaver rhoeas = experiment: as above; assay type: in vivo; conditions: PAPRH
Procedure: as §1, §2, §3, §4

HELAN Pacino = experiment: Greenhouse experiment, crop safety of sunflower; assay type: in vivo, Helianthus annuus; conditions: BBCH 12-14, Flumioxazin 0.5, Halauxifen 1 g ai/ha, scale 0 to 100%
Procedure: as §1, §2, §3, §4

Mercuralis annua [2] = experiment: Greenhouse experiment, post emergence herbicidal activity; assay type: in vivo; conditions: MERAN, BBCH 12-14, Flumioxazin 0.5, Imazamox 10 g ai/ha
Procedure: as §1, §2, §3, §4

Echinochloa crus-galli [3] = experiment: Field experiment, post-emergence herbicidal activity; assay type: in vivo; conditions: ECHCG, postemergence
Procedure: (§5) Trial Objective: Saflufenacil in tank mix with Pendimethalin efficacy on weeds and grasses in early post-emergence of the weeds
(§6) On field test sites, natural weed infestation was treated, pre-emergence of the weeds on bare soil or post-emergence of the weeds.
(§7) For the post emergence treatment, the weedy plants were treated between the 2-4 true leaf stage (GS12-14) and the 6 true leaf stage (GS 16). The herbicidal compositions were suspended or emulsified in water as distribution medium and sprayed with commercial flat fan nozzles using between 100 and 200 l/ha water.
(§8) In the following experiments, the herbicidal activity for the individual herbicidal compositions (solo and mixture applications) was assessed up to 36 days after treatment (DAT). The assessments for the damage on undesired weeds caused by the chemical compositions was carried out using a scale from 0 to 100%, compared to the untreated control plants. Here, 0 means no damage and 100 means complete destruction of the plants.
(§9) [formula] • where X=effect in percent using herbicide (A) at an application rate a; • Y=effect in percent using herbicide (B) at an application rate b; • E=expected effect (in %) of herbicide (A)+herbicide (B) at application rates a+b.
(§10) The value E corresponds to the effect (plant damage or injury) which is to be expected if the activity of the individual compounds is additive. If the observed effect is higher than the value E calculated according to the Colby equation, a synergistic effect is present.

Amaranthus retroflexus = experiment: as above; assay type: in vivo; conditions: AMARE, postemergence
Procedure: as §5, §6, §7, §8, §9, §10

Mercuralis annua [4] = experiment: as above; assay type: in vivo; conditions: MERAN, postemergence, Saflufenacil 12.5, Pendimethalin 1365 g ai/ha
Procedure: as §5, §6, §7, §8, §9, §10

Erigeron canadensis = experiment: Greenhouse experiment, post emergence herbicidal activity; assay type: in vivo; conditions: ERICA, BBCH 12-14, Flumioxazin 1, Pyraflufen-ethyl 1.5 g ai/ha
Procedure: as §1, §2, §3, §4

Eleusine indica = experiment: Field experiment, pre-emergence herbicidal activity on bare ground; assay type: in vivo; conditions: ELEIN, preemergence, Saflufenacil 25, Sulfentrazone 210 g ai/ha
Procedure: (§11) Trial Objective: Efficacy of Saflufenacil in tank mix with Flumioxazin applied in pre-emergence of the weeds on bare ground.
(§12) Trial Objective: Efficacy of Saflufenacil in tank mix with Sulfentrazone applied in pre-emergence of the weeds on bare ground.
as §6
(§13) For the pre-emergence treatment, the active compounds, suspended or emulsified in water, were applied by means of finely distributing nozzles on bare ground.
as §8, §9, §10

Urochloa texana = experiment: as above; assay type: in vivo; conditions: PANTE, preemergence, Saflufenacil 25, Sulfentrazone 210 g ai/ha
Procedure: as §11, §12, §6, §13, §8, §9, §10

[5] = BBCH 12-14, Saflufenacil 0.5, Clethodim 30 g ai/ha
[6] = BBCH 12-14, Flumioxazin 2, Fomesafen 123 g ai/ha
[7] = BBCH 12-14, Flumioxazin 0.5, Halauxifen 1 g ai/ha
[8] = BBCH 12-14, Flumioxazin 2, Halauxifen 1 g ai/ha
[9] = BBCH 12-14, Saflufenacil 1, Imazamox 10 g ai/ha
[10] = Saflufenacil 12.5, Pendimethalin 1064 g ai/ha
[11] = BBCH 12-14, Flumioxazin 0.5, Pyraflufen-ethyl 1.5 g ai/ha
[12] = BBCH 12-14, Flumioxazin 2, Tribenuron-methyl 6 g ai/ha

CCSC(C)CC1CC(=O)C(/C(CC)=N/OC/C=C/Cl)=C(O)C1 (stereo not drawn) [Clethodim]
% Herbicidal activity (Polygonum aviculare; [5]): 0%
% Herbicidal activity (Chenopodium album; BBCH 12-14, Saflufenacil 4, Clethodim 30 g ai/ha): 0%
% Herbicidal activity (Ambrosia artemisiifolia; BBCH 12-14, Saflufenacil 1, Clethodim 30 g ai/ha): 10%
% Herbicidal activity (Hibiscus trionum; [5]): 10%
% Herbicidal activity (Convolvulus arvensis; [5]): 0%
% Herbicidal activity (Sonchus arvensis; [5]): 5%
% Herbicidal activity (Matricaria chamomilla; [5]): 0%

CS(=O)(=O)NC(=O)c1cc(Oc2ccc(C(F)(F)F)cc2Cl)ccc1[N+](=O)[O-] [Fomesafen, 5-[2-Chloro-4-(trifluoromethyl)phenoxy]-N-(methanesulfonyl)-2-nitrobenzamide]
% Herbicidal activity (Chenopodium album; [6]): 80%
% Herbicidal activity (Echinochloa crus-galli [1]; [6]): 85%
% Herbicidal activity (Echinochloa crus-galli [1]; BBCH 12-14, Saflufenacil 4, Fomesafen 123 g ai/ha): 95%
% Herbicidal activity (Abutilon theophrasti; BBCH 12-14, Saflufenacil 2, Fomesafen 1 g ai/ha): 94%
% Herbicidal activity (Convolvulus arvensis; BBCH 12-14, Flumioxazin 0.5, Fomesafen 123 g ai/ha): 70%
% Herbicidal activity (Solanum nigrum): 90%
% Herbicidal activity (Matricaria chamomilla; BBCH 12-14, Flumioxazin 1, Fomesafen 123 g ai/ha): 85%

COc1c(Cl)ccc(-c2cc(N)c(Cl)c(C(=O)O)n2)c1F [Halauxifen]
Observed crop damage 21 days after treatment (HELAN w F(383)I): 15%
% Herbicidal activity (Convolvulus arvensis; [7]): 60%
% Herbicidal activity (Convolvulus arvensis; BBCH 12-14, Saflufenacil 0.5, Halauxifen 1 g ai/ha): 70%
% Herbicidal activity (Setaria viridis; [7]): 70%
% Herbicidal activity (Sonchus arvensis; [8]): 65%
% Herbicidal activity (Papaver rhoeas; [7]): 95%
% Herbicidal activity (Matricaria chamomilla; [8]): 5%
% Herbicidal activity (Matricaria chamomilla; BBCH 12-14, Saflufenacil 2, Halauxifen 1 g ai/ha): 65%
Observed crop damage 21 days after treatment (HELAN Pacino): 5%

COCc1cnc(C2=NC(C)(C(C)C)C(=O)N2)c(C(=O)O)c1 (stereo not drawn) [Imazamox, 5-(methoxymethyl)-2-(4-methyl-5-oxo-4-propan-2-yl-1H-imidazol-2-yl)pyridine-3-carboxylic acid]
% Herbicidal activity (Ambrosia artemisiifolia; BBCH 12-14, Flumioxazin 4, Imazamox 10 g ai/ha): 85%
% Herbicidal activity (Ambrosia artemisiifolia; [9]): 75%
% Herbicidal activity (Hibiscus trionum; BBCH 12-14, Flumioxazin 0.5, Imazamox 10 g ai/ha): 65%
% Herbicidal activity (Abutilon theophrasti; BBCH 12-14, Flumioxazin 1, Imazamox 10 g ai/ha): 84%
% Herbicidal activity (Mercuralis annua [2]): 30%
% Herbicidal activity (Setaria viridis; BBCH 12-14, Saflufenacil 0.5, Imazamox 10 g ai/ha): 75%
% Herbicidal activity (Matricaria chamomilla; [9]): 35%

CCC(CC)Nc1c([N+](=O)[O-])cc(C)c(C)c1[N+](=O)[O-] [Pendimethalin]
% Herbicidal activity (Echinochloa crus-galli [3]; [10]): 80%
% Herbicidal activity (Echinochloa crus-galli [3]; Saflufenacil 12.5, Pendimethalin 1365 g ai/ha): 36%
% Herbicidal activity (Echinochloa crus-galli [3]; Saflufenacil 50, Pendimethalin 1064 g ai/ha): 80%
% Herbicidal activity (Amaranthus retroflexus; Saflufenacil 12.5, Pendimethalin 840 g ai/ha): 37%
% Herbicidal activity (Amaranthus retroflexus; [10]): 80%
% Herbicidal activity (Mercuralis annua [4]): 42%

CCOC(=O)COc1cc(-c2nn(C)c(OC(F)F)c2Cl)c(F)cc1Cl [Pyraflufen-ethyl, ethyl 2-[2-chloro-5-[4-chloro-5-(difluoromethoxy)-1-methylpyrazol-3-yl]-4-fluorophenoxy]acetate]
% Herbicidal activity (Polygonum aviculare; [11]): 90%
% Herbicidal activity (Convolvulus arvensis; BBCH12-14, Flumioxazin 0.5, Pyraflufen-ethyl 1.5 g ai/ha): 70%
% Herbicidal activity (Erigeron canadensis): 80%
% Herbicidal activity (Sonchus arvensis; [11]): 98%

Cc1nn(-c2cc(NS(C)(=O)=O)c(Cl)cc2Cl)c(=O)n1C(F)F [Sulfentrazone, N-{2,4-Dichloro-5-[4-(difluoromethyl)-3-methyl-5-oxo-4,5-dihydro-1H-1,2,4-triazol-1-yl]phenyl}methanesulfonamide]
% Herbicidal activity (Eleusine indica): 80%
% Herbicidal activity (Urochloa texana): 45%

COC(=O)c1ccccc1S(=O)(=O)NC(=O)N(C)c1nc(C)nc(OC)n1 [Tribenuron-methyl, Methyl 2-[[(4-methoxy-6-methyl-1,3,5-triazin-2-yl)-methylcarbamoyl]sulfamoyl]benzoate]
% Herbicidal activity (Ambrosia artemisiifolia; BBCH 12-14, Saflufenacil 1, Tribenuron-methyl 6 g ai/ha): 90%
% Herbicidal activity (Setaria viridis; [12]): 25%
% Herbicidal activity (Papaver rhoeas; [12]): 95%
